System: Botrytis cinerea
Assay: Treatment of wounded sweet peppers inoculated with Botrytis cinerea (Examples 9, 10)
Format: in vivo
Details: 20° C., 400 ppm natamycin
Method: Ten fresh, organic sweet peppers were used per treatment. Each sweet pepper was soaked in a 180 ppm hypochlorite solution for 10 minutes, then rinsed thoroughly with fresh tap water and dried. The peel of each disinfected sweet pepper was wounded once using a cork borer according to the method described by de Lapeyre de Bellaire and Dubois (1987). Subsequently, each wound was inoculated with 10 μl of a Botrytis cinerea suspension containing 1×10^5 of spores/ml. After incubation for 3 hours at 20° C., each wound and the skin area of 0.5 cm around the wound was treated with in total 75 μl of a freshly prepared aqueous antifungal composition comprising either 400 ppm natamycin (DSM Food Specialties, Delft, The Netherlands), 600 ppm fenhexamid or both. Each antifungal composition also comprised 3.2% (w/w) beeswax, 0.8% (w/w) glycerol, 0.7% (w/w) polyoxyethylene sorbitan monostearate (Tween 60), 0.2% (w/w) polyoxyethylene sorbitan monooleate (Tween 80), 0.05% (w/w) methylhydroxyethyl-cellulose (MHEC), 0.03% (w/w) anti-foaming agent, 0.02% (w/w) xanthan gum, 0.02% (w/w) citric acid, 0.01% (w/w) lactic acid and 0.01% potassium sorbate. A composition without natamycin or fenhexamid was used as control.
The treated sweet peppers were incubated in a closed box in the dark at 20° C. and assessed on mould growth during a 26-day incubation period. The antifungal activity (in %) of the individual and combined active ingredients was determined by calculating the reduction in mould growth observed on the sweet peppers treated with the antifungal composition in comparison to the mould growth on the sweet peppers treated with the control composition according to the Colby method (Colby, 1967) described in Example 5.
The experiment was conducted as described in Example 9, except for the fact that each wounded and inoculated sweet pepper was treated with 75 μl of a freshly prepared aqueous antifungal composition comprising either 400 ppm natamycin (DSM Food Specialties, Delft, The Netherlands), 800 ppm carboxin or both. The treated sweet peppers were incubated in a closed box in the dark at 20° C. and assessed on mould growth during a 26-day incubation period. During incubation, the treated sweet peppers were assessed on mould growth according to the method described in Example 9.

Compound: C[C@@H]1C/C=C/C=C/C=C/C=C/[C@H](O[C@@H]2O[C@H](C)[C@@H](O)[C@H](N)[C@@H]2O)C[C@@H]2O[C@](O)(C[C@@H](O)C[C@H]3O[C@@H]3/C=C/C(=O)O1)C[C@H](O)[C@H]2C(=O)O [Natamycin, natamycin]
- Observed antifungal activity O (%) (13-17 days, 600 ppm fenhexamid or both): 86%
- Observed antifungal activity O (%) (17-19 days, 800 ppm carboxin or both): 86%
- Observed antifungal activity O (%) (18-22 days, 600 ppm fenhexamid or both): 86%
- Observed antifungal activity O (%) (20-21 days, 800 ppm carboxin or both): 87%
- Observed antifungal activity O (%) (6 days, 600 ppm fenhexamid or both): 95%
- Observed antifungal activity O (%) (8 days, 600 ppm fenhexamid or both): 94%
- Observed antifungal activity O (%) (10 days, 600 ppm fenhexamid or both): 89%
- Observed antifungal activity O (%) (11 days, 600 ppm fenhexamid or both): 87%
- Observed antifungal activity O (%) (22 days, 800 ppm carboxin or both): 85%
- Observed antifungal activity O (%) (24 days, 600 ppm fenhexamid or both): 83%
- Observed antifungal activity O (%) (24 days, 800 ppm carboxin or both): 83%
- Observed antifungal activity O (%) (25 days, 600 ppm fenhexamid or both): 82%
- Observed antifungal activity O (%) (25 days, 800 ppm carboxin or both): 82%
- Observed antifungal activity O (%) (26 days, 600 ppm fenhexamid or both): 79%
- Observed antifungal activity O (%) (26 days, 800 ppm carboxin or both): 79%
